Target: C-C chemokine receptor type 5 (Homo sapiens, UniProt P51681)
Test: Antagonist activity at Homo sapiens (human) CCR5 receptor

Sequence of C-C chemokine receptor type 5 (P51681 whole entry): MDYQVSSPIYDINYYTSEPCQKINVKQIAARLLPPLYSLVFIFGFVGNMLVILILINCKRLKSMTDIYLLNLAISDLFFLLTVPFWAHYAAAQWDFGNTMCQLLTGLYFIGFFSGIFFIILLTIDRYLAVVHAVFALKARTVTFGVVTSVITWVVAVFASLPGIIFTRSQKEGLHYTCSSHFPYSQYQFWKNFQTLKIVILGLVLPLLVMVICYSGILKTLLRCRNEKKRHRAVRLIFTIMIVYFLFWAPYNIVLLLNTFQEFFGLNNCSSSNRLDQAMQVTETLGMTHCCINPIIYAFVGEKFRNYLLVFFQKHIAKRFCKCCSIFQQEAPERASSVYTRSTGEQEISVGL

IC50	SMILES
1000 nM	CCCN(C(=O)NC)C1CCN(CCC(CN(C)S(=O)(=O)c2ccccc2)c2ccccc2)CC1 (configuration not stated)
2.51 nM	CN(CC(CCN1CCC(NC(=O)NCc2ccccc2)CC1)c1ccccc1)S(=O)(=O)c1ccccc1 (configuration not stated)
1000 nM	COC(=O)NC1CCN(CC[C@H](CN(C)S(=O)(=O)c2ccccc2)c2ccccc2)CC1
120 nM	CNC(=O)NC1CCN(CCC(CN(C)S(=O)(=O)c2ccccc2)c2ccccc2)CC1 (configuration not stated)

The remaining lines, values behind:

SMILES	IC50
C=CCN(C(=O)c1ccc([N+](=O)[O-])cc1)C1CCN(CCC(CN(C)S(=O)(=O)c2ccccc2)c2ccccc2)CC1 (configuration not stated)	2 nM
C=CCN(C(=O)Nc1ccc([N+](=O)[O-])cc1)C1CCN(CCC(CN(C)S(=O)(=O)c2ccccc2)c2ccccc2)CC1 (configuration not stated)	0.759 nM
CCN(C(=O)NCc1ccccc1)C1CCN(CCC(CN(C)S(=O)(=O)c2ccccc2)c2ccccc2)CC1 (configuration not stated)	100 nM
CCCN(C(=O)OCc1cccc(C(N)=O)c1)C1CCN(CC[C@H](CN(C)S(=O)(=O)c2ccccc2)c2ccccc2)CC1	0.794 nM
CCN(C(=O)OC)C1CCN(CC[C@H](CN(C)S(=O)(=O)c2ccccc2)c2cccc(Cl)c2)CC1	39.8 nM
CCCN(C(=O)OCc1ccc(C(N)=O)cc1)C1CCN(CC[C@H](CN(C)S(=O)(=O)c2ccccc2)c2ccccc2)CC1	3.02 nM
CCCN(C(=O)OCc1ccccc1C)C1CCN(CC[C@H](CN(C)S(=O)(=O)c2ccccc2)c2ccccc2)CC1	1.51 nM
CCCN(C(=O)OCc1ccccc1)C1CCN(CC[C@H](CN(C)S(=O)(=O)c2ccccc2)c2ccccc2)CC1	3.98 nM
